Measurements as given in article PMC5962642, “Dynamic imaging of adaptive stress response pathway activation for prediction of drug induced liver injury” (Archives of Toxicology, 2018).
“Also recorded” adds a separate entry of the source.

Legend:
[1] = tested on: Srxn1-GFP (oxidative stress); assay: HepG2 Srxn1-GFP BAC reporter, live cell confocal imaging (oxidative stress); format: cell-based, Human; conditions: for Srxn1-GFP reporter response: HepG2 BAC-GFP, 24 h live imaging, 1-100 C-max; for activation of Srxn1-GFP and/or CHOP-GFP (cluster 3): cluster description, reporter not resolved per drug (Srxn1-GFP and/or CHOP-GFP); for Srxn1-GFP response at the intensity feature level (cell population): GFP intensity over the single cell population
Experimental: Human hepatoma HepG2 cells were acquired from ATCC (clone HB8065). HepG2 Srxn1, DDIT3 (CHOP), CDKN1A (p21) and ICAM1 BAC GFP reporter cell lines were previously established and characterized (Wink et al. [2017]). HepG2 BAC GFP reporters were maintained and exposed to drugs in DMEM high glucose supplemented with 10% (v/v) FBS, 25 U/mL penicillin and 25 µg/mL streptomycin. The cell lines were used between passage 5 and 25. For live cell imaging, the cells were seeded in Greiner black µ-clear 384 wells plates, at 8000 cells per well.
Accumulation of GFP levels, propodium iodide (PI) and Hoechst staining was monitored using a Nikon TiE2000 confocal laser microscope (lasers 540, 488 and 408 nm), equipped with an automated stage and perfect focus system at 37 °C with humidified atmosphere and 5% CO2/air mixture. All imaging was similar as previously described^5. Each 384-well plate contained one reporter cell line, which was exposed to all the compounds used in the screen at one certain concentration (1, 5, 10, 50 or 100 Cmax); for each concentration at least two replicates were imaged per reporter cell line. For the ICAM1-GFP reporter experiments, cells were first exposed for 8 h to compound only; next, TNFα was added to all wells, up to a final concentration of 10 ng/mL. Directly after TNFα treatment the live cell imaging was started.
Quantitative image analysis was performed with CellProfiler version 2.1.1 (Kamentsky et al. [2011]) with an in house developed CellProfiler module implementing the watershed masked algorithm for segmentation (Yan and Verbeek [2012]; Wink et al. [2017]). Image analysis results were stored as HDF5 files. Data analysis, quality control and graphics were performed using the in house developed R package h5CellProfiler (manuscript in preparation). For each reporter hourly intensity levels of the GFP signal, the nuclear Hoechst33342 intensity levels and at 24 h the PI staining were measured at the single cell level. In addition, cell numbers, nuclei size and cell motility were measured.
GFP intensity cell population means were calculated. In addition, for each plate the cell population mean GFP intensity of the DMSO treated cells was calculated to determine background control values. Per plate, the single cells that had values above the 2X mean, 3X mean were counted resulting in GFP positive fraction measures. For ICAM1, the background control values consisted of DMSO conditions treated with TNFα, and the single cells with values above, as well as below background values were counted. Due to the non-symmetric distribution of ICAM1 cell population GFP intensities, the interquartile range (IQR) was used to count the number of cells 1.5, 2 and 3 times above and below the TNFα IQR control values (Supplemental Fig. 1).
The maximum values over time of the scaled intensity levels and positive GFP fractions were selected for the concentration response curves. These values were fit to a four parameter log-logistic model using the drc package (Ritz et al. [2015]). BMC values were calculated as the concentration at which + 0.25 (and − 0.25 for ICAM1) absolute increase from the initial response values occurred (Fig. 5a).

[2] = ref livertox.nih.gov database; cited from earlier work
[3] = tested on: ICAM1-GFP (NF-κB-mediated inflammatory signaling); assay: HepG2 ICAM1-GFP BAC reporter, TNFα-induced, live cell confocal imaging; format: cell-based, Human; conditions: HepG2 BAC-GFP, 8 h compound then TNFα 10 ng/mL, 24 h live imaging, 1-100 C-max
Experimental: Human hepatoma HepG2 cells were acquired from ATCC (clone HB8065). HepG2 Srxn1, DDIT3 (CHOP), CDKN1A (p21) and ICAM1 BAC GFP reporter cell lines were previously established and characterized (Wink et al. [2017]). […] The cell lines were used between passage 5 and 25. For live cell imaging, the cells were seeded in Greiner black μ-clear 384 wells plates, at 8000 cells per well. […] All imaging was similar as previously described^5. […] Directly after TNFα treatment the live cell imaging was started. Quantitative image analysis was performed with CellProfiler version 2.1.1 ([…] et al. [2011]) with an in house developed CellProfiler module implementing the watershed masked algorithm for segmentation (Yan and Verbeek [2012]; Wink et al. [2017]). Image analysis results were stored as HDF5 files. Data analysis, quality control and graphics were performed using the in house developed R package h5CellProfiler (manuscript in preparation). For each reporter hourly intensity levels of the GFP signal, the nuclear Hoechst33342 intensity levels and at 24 h the PI staining were measured at the single cell level. In addition, cell numbers, nuclei size and cell motility were measured. GFP intensity cell population means were calculated. In addition, for each plate the cell population mean GFP intensity of the DMSO treated cells was calculated to determine background control values. Per plate, the single cells that had values above the 2X mean, 3X mean were counted resulting in GFP positive fraction measures. For ICAM1, the background control values consisted of DMSO conditions treated with TNFα, and the single cells with values above, as well as below background values were counted. […] Linear regression was applied with respect to time to quantify treatment effects on a plate-to-plate basis to quantify cell speed, nuclear size, Hoechst nuclear intensity and cell numbers. […] The maximum values over time of the scaled intensity levels and positive GFP fractions were selected for the concentration response curves. These values were fit to a four parameter log-logistic model using the drc package (Ritz et al. [2015]). BMC values were calculated as the concentration at which + 0.25 (and - 0.25 for ICAM1) absolute increase from the initial response values occurred (Fig. 5a).

[4] = C-max obtained from FDA or literature; ref per compound (FDA, Dailymed, Xu, O’Brien, Khetani, Regenthal, Gustafsson, Dawson, Ogutu, Patel, Schmidt, Ravic, Keisu, Hu, Wagner); cited from earlier work
[5] = ref Chen et al. [2016], cited from earlier work; for DILI con. (DILI-concern labeling): FDA DILI labeling; for Hepa. (hepatotoxicity class): FDA labeling in eight classes of hepatotoxicity
[6] = two classes made from the FDA DILI-concern labeling
[7] = tested on: CHOP-GFP (ER stress/UPR response); assay: HepG2 CHOP-GFP BAC reporter, live cell confocal imaging (ER stress/UPR); format: cell-based, Human
Experimental: Image analysis results were stored as HDF5 files. […] For each reporter hourly intensity levels of the GFP signal, the nuclear Hoechst33342 intensity levels and at 24 h the PI staining were measured at the single cell level. In addition, cell numbers, nuclei size and cell motility were measured.
The maximum values over time of the scaled intensity levels and positive GFP fractions were selected for the concentration response curves. […] BMC values were calculated as the concentration at which + 0.25 (and − 0.25 for ICAM1) absolute increase from the initial response values occurred (Fig. 5a).

[8] = order of responses in 24 h, 100× C-max printed for nimesulide, rifampicin, oxytetracycline

Row | SMILES | Srxn1-GFP reporter response [1] | Metab (metabolic potential) [2] | modulation of TNFα-induced ICAM1-GFP response [3] | Cmax [4] | DILI con. (DILI-concern labeling) [5] | Hepa. (hepatotoxicity class) [5] | activation of Srxn1-GFP and/or CHOP-GFP (cluster 3) [1] | also measured
1 | CC(=O)Nc1ccc(O)cc1 [Acetaminophen] | activation | YES |  |  |  |  |  | 
2 | Cn1cnc([N+](=O)[O-])c1Sc1ncnc2nc[nH]c12 [Azathioprme, azathioprine] | mild Srxn1-GFP and ICAM1-GFP activation | YES | enhancing; also recorded: mild Srxn1-GFP and ICAM1-GFP activation | 0.34 µM | Most-DC | 5 |  | 
3 | CCc1oc2ccccc2c1C(=O)c1cc(Br)c(O)c(Br)c1 [Benzbromarone] |  | YES | mild ICAM1-GFP suppression | 4.34 µM | Most-DC | 8 | activation of Srxn1-GFP and/or CHOP-GFP | 
4 | Nc1c(CC(=O)O)cccc1C(=O)c1ccc(Br)cc1 [Bromfenac] |  |  | mild ICAM1-GFP suppression | 18 µM | Most-DC | 8 | activation of Srxn1-GFP and/or CHOP-GFP | 
5 | CN(C)CCCN1c2ccccc2Sc2ccc(Cl)cc21 [Chlorpromazine] |  | YES |  | 0.94 µM | Less-DC | 2 |  | Srxn1-GFP response at the intensity feature level (cell population) [1]: would not have been defined as positive
6 | COc1cc2c(c(OC)c1OC)-c1ccc(OC)c(=O)cc1[C@@H](NC(C)=O)CC2 [Colchicine] | mild Srxn1-GFP and ICAM1-GFP activation | YES | mild Srxn1-GFP and ICAM1-GFP activation | 0.016 µM | Amb.-DC | 6 |  | Severity class [6]: Non-sev.
7 | O=C1CN(/N=C/c2ccc(-c3ccc([N+](=O)[O-])cc3)o2)C(O)=N1 [Dantrolene] |  | YES | mild ICAM1-GFP suppression | 7.9 µM | Most-DC | 8 | activation of Srxn1-GFP and/or CHOP-GFP | 
8 | O=C(O)Cc1ccccc1Nc1c(Cl)cccc1Cl [Diclofenac] |  |  | inhibiting; also recorded: mild ICAM1-GFP suppression | 10.1 µM |  |  | activation of Srxn1-GFP and/or CHOP-GFP | Severity class [6]: Sev.
9 | CCOC(=O)/C=C\C(=O)OCC [Diethylmaleate] | strong inducers |  |  |  |  |  |  | 
10 | CC(=O)N1CCN(c2ccc(OCC3COC(Cn4ccnc4)(c4ccc(Cl)cc4Cl)O3)cc2)CC1 (stereo not shown) [Ketoconazole] |  |  |  | 6.59 µM | Most-DC | 8 |  | Srxn1-GFP response at the intensity feature level (cell population) [1]: no Srxn1-response; earliest concentration with Srxn1 response, %GFP positive marker ([1]; multiples of C-max): 50 C-max
11 | CN(C)[C@@H]1C(O)=C(C(N)=O)C(=O)[C@@]2(O)C(O)=C3C(=O)c4c(O)cccc4[C@@](C)(O)[C@H]3[C@H](O)[C@@H]12 [Oxytetracycline] |  |  |  | 3.26 µM | Amb.-DC | 2 |  | Srxn1-GFP response, time dynamics relative to CHOP-GFP [1, 8]: delayed Srxn1-GFP response; CHOP-GFP response, time dynamics relative to Srxn1-GFP [7, 8]: initial CHOP-GFP response
12 | CC1=C(CC(=O)O)c2cc(F)ccc2/C1=C\c1ccc([S+](C)[O-])cc1 (stereo not shown) [Sulindac] | activation | YES |  | 32 µM | Most-DC | 8 |  | 
13 | C/C=C(/C)C(=O)O[C@H]1C(C)=C2[C@H]([C@@H]1OC(=O)CCCCCCC)[C@@](C)(OC(C)=O)C[C@H](OC(=O)CCC)[C@@]1(O)[C@H]2OC(=O)[C@@]1(C)O [Thapsigargin] |  |  |  |  |  |  |  | CHOP-GFP reporter response ([7]; HepG2 BAC-GFP, 24 h live imaging, 1-100 C-max): strong inducers
